Biological target: T1, fibrinogen in human plasma (Homo sapiens, UniProt P02671+P02675+P02679)
T1 construct: 200 μl of 256% of norm active fibrinogen in P-Pool; from tissue; host or cells: pooled citrated human patient plasma (P-Pool / Fbgen-Pool)
T1 sequence (P02671 20-629 isoform P02671-2 limits assumed): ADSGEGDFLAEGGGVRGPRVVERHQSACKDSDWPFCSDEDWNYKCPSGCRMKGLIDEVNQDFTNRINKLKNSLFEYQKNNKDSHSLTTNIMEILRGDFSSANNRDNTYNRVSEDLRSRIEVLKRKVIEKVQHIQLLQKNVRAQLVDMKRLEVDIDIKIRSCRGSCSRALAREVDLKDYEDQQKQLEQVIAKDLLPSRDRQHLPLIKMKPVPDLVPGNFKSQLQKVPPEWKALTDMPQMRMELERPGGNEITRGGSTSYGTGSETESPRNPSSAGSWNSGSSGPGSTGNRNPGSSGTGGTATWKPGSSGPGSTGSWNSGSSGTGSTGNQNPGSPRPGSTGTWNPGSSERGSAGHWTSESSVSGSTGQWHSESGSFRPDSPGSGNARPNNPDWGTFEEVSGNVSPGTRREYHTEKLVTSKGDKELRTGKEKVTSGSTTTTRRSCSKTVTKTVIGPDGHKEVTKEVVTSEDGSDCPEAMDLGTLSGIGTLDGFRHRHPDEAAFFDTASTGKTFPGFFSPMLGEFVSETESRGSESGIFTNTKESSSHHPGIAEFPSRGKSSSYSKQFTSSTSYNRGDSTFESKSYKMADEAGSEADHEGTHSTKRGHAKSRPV
T1 sequence (P02675 31-491): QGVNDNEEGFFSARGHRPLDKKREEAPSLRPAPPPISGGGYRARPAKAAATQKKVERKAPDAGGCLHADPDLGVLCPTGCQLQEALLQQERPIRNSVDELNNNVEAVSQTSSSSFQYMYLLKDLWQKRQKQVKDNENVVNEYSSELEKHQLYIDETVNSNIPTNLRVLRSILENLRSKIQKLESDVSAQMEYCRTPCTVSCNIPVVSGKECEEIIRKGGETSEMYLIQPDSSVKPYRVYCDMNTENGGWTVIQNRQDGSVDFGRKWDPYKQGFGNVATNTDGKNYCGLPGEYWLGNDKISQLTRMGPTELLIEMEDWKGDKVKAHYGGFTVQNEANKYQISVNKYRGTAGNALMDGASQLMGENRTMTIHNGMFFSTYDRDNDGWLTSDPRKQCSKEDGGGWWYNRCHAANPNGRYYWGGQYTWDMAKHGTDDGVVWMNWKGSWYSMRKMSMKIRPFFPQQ
T1 sequence (P02679 27-437 isoform P02679-2 limits assumed): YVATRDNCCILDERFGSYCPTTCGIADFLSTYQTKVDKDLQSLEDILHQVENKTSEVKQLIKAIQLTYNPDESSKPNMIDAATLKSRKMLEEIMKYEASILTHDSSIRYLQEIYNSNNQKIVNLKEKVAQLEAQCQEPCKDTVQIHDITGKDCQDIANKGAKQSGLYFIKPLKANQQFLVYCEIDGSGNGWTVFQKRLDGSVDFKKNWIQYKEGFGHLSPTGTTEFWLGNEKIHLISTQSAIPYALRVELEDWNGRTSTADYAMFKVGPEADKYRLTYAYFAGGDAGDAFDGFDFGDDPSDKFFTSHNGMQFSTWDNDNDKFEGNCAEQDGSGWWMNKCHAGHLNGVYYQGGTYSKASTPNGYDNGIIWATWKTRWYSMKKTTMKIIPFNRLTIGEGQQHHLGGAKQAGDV
Assay: Inactivation of fibrinogen by vancomycin or chloramine-T (FIFTA read-out)
Type: biochemical
Experimental: 200 μl of 256% of norm active fibrinogen in P-Pool were incubated with 25 μl 0-100 mM vancomycin or 0-100 mM chloramine-T® in aqua dest. for 15 min (37° C.). 50 μl samples of these reaction mixtures were withdrawn and incubated with 100 μl 200 mIU/ml thrombin, 400 μg/ml Polybrene®, 6% BSA-PBS. The results were standardized by simultaneous analysis of 144% of norm active fibrinogen in P-Pool.

CN[C@H](CC(C)C)C(=O)N[C@H]1C(=O)N[C@@H](CC(N)=O)C(=O)N[C@H]2C(=O)N[C@H]3C(=O)N[C@H](C(=O)N[C@H](C(=O)O)c4cc(O)cc(O)c4-c4cc3ccc4O)[C@H](O)c3ccc(c(Cl)c3)Oc3cc2cc(c3O[C@@H]2O[C@H](CO)[C@@H](O)[C@H](O)[C@H]2O[C@H]2C[C@](C)(N)[C@H](O)[C@H](C)O2)Oc2ccc(cc2Cl)[C@H]1O [vancomycin]
IC50: ~1 mM

Source: patent US7741124B2, “Detection procedures for fibrinogen and/or fibrinogen derivatives” (priority 2003, dated 2010)
